Assay results as given in patent US8541440B2 (priority 2005, dated 2013).
Structures can show the parent of a compound that is named as a salt. Where two headings read alike, the source gives them in different places.

Experiments:
[1] = target: nicotinic receptors containing the α7 subunit (Rattus norvegicus, UniProt Q05941); assay: biochemical; format: binding
[2] = target: nicotinic receptors containing the α4β2 subunit (Rattus norvegicus, UniProt P09483+P12390); assay: Affinity for nicotinic receptors containing the α4β2 subunit, [3H]-cytisine binding to rat brain membranes; details: read-out: Percentage of inhibition of the specific binding of [3H]-cytisine at a dose of 1 μM, for the α4β2 subunit
Sequence of nicotinic receptors containing the α4β2 subunit (P09483 31-630): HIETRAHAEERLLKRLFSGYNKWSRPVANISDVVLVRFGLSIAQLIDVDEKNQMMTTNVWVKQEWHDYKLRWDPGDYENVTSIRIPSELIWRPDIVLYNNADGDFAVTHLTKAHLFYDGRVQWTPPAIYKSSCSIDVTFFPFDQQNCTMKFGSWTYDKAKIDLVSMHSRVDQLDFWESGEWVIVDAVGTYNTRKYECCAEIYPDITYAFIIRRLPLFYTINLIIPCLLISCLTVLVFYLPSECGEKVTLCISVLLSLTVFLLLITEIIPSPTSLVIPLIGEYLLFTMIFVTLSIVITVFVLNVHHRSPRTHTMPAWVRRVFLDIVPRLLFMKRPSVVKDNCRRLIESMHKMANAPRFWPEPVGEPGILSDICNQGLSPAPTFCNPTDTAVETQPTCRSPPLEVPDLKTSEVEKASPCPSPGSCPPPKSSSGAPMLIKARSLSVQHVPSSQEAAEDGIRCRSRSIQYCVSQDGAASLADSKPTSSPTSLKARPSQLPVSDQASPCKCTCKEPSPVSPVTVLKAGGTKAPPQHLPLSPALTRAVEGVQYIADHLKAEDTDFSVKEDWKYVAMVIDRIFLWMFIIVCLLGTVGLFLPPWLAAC
Sequence of nicotinic receptors containing the α4β2 subunit (P12390 25-500): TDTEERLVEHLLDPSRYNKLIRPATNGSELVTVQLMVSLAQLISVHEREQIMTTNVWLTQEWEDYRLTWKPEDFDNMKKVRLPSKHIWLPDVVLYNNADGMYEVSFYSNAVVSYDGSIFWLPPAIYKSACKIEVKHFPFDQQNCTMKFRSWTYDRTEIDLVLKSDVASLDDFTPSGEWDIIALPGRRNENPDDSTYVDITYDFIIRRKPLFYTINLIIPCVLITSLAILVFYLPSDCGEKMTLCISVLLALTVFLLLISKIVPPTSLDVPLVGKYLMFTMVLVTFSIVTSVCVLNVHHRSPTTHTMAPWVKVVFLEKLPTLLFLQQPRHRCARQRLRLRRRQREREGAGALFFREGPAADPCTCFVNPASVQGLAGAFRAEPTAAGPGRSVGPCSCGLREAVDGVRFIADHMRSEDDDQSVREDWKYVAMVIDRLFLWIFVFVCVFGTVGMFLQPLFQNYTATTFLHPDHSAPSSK
Procedure: The compounds of the invention were also studied as regards their affinity for nicotinic receptors containing the α4β2 subunit according to the methods described by Anderson and Arneric, Eur. J. Pharmacol (1994), 253, 261, and by Hall et al., Brain Res. (1993), 600, 127.
Male Sprague Dawley rats weighing 150 to 200 g are decapitated and the entire brain is removed quickly, homogenized in 15 volumes of 0.32 M sucrose solution at 4° C. and then centrifuged at 1000×g for 10 min. The pellet is discarded and the supernatant is centrifuged at 20 000×g for 20 min at 4° C. The pellet is recovered and homogenized using a Polytron™ mill in 15 volumes of double-distilled water at 4° C., followed by centrifugation at 8000×g for 20 min. The pellet is discarded and the supernatant and the buffy coat are centrifuged at 40 000×g for 20 min, the pellet is recovered, resuspended in 15 ml of double-distilled water and centrifuged again at 40 000×g, before being stored at −80° C.
On the day of the experiment, the tissue is thawed slowly and suspended in 3 volumes of buffer. 150 μl of this membrane suspension are incubated at 4° C. for 120 min in the presence of 100 μl of 1 nM [^3H]-cytisine in a final volume of 500 μl of buffer, in the presence or absence of test compound. The reaction is stopped by filtration on Whatman GF/B™ filters pretreated with polyethyleneimine, the filters are rinsed with 2×5 ml of buffer at 4° C. and the radioactivity retained on the filter is measured by liquid scintigraphy. The non-specific binding is determined in the presence of 10 μM (−)-nicotine; the non-specific binding represents […] of the total binding recovered on the filter. For each concentration of test compound, the percentage of inhibition of the specific binding of [^3H]-cytisine is determined, at doses of 1 μM and 10 μM. For the most affine compounds of the invention, the IC50 value is calculated, which is the concentration of compound that inhibits the specific binding by 50%.

[3] = compound at 1 μM, 1 nM [3H]-cytisine, rat brain membranes

Sequence of nicotinic receptors containing the α7 subunit (Q05941 23-502): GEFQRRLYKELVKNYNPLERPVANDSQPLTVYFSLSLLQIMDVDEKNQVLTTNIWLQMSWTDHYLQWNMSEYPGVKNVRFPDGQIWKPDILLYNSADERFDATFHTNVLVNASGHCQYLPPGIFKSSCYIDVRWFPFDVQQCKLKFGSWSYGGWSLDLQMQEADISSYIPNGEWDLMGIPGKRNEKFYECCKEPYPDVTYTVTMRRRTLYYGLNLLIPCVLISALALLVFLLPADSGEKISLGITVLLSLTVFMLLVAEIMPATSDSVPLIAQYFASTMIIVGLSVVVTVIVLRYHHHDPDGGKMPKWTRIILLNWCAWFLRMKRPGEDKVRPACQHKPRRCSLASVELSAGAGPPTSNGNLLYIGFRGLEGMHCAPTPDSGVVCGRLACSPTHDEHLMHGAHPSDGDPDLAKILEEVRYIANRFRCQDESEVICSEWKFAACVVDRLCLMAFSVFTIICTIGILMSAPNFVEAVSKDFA

SMILES | melting point [°C] | also measured
C1=CC2(c3ccc(-c4cscn4)nc3)CCN(C1)C2 (stereo not drawn) (as salt: HBr) | 272 to 274 | 
C1=CC2(c3ccc(-c4cc[nH]n4)nc3)CCN(C1)C2 (stereo not drawn) (as salt: HBr) | 273 to 275 | 
CC(C)Cn1cc(-c2ccc(C34C=CCN(CC3)C4)cn2)cn1 (stereo not drawn) (as salt: HBr) | 104 to 106 | 
C1=CC2(c3ccc(-c4c[nH]cn4)nc3)CCN(C1)C2 (single isomer, unassigned) [Compound 9] |  | IC50 [1]: 300 nM; inhibition at 1 µM [2, 3]: 24%
C1=CC2(c3ccc(-c4ncc[nH]4)nc3)CCN(C1)C2 (single isomer, unassigned) [Compound 14] |  | IC50 [1]: 99 nM; inhibition at 1 µM [2, 3]: 45%
Cn1cc(-c2ccc(C34CCCN(CC3)C4)cn2)cn1 (racemic) | 138 to 140 | 
CCCn1cc(-c2ccc(C34C=CCN(CC3)C4)cn2)cn1 (stereo not drawn) (as salt: HBr) | 190 to 192 | 
C1=CC2(c3ccc(-n4ccnc4)nc3)CCN(C1)C2 (single isomer, unassigned) [Compound 11] |  | IC50 ([1]; read-out: IC50 α7): 83 nM; inhibition at 1 µM [2]: 36%
C1=CC2(c3ccc(-c4ncc[nH]4)nc3)CCN(C1)C2 (single isomer, unassigned) (as salt: HBr) [Compound 14] | 234 to 236 | 
